From ChEMBL document CHEMBL1141525, “Substituted 2,2-bisaryl-bicycloheptanes as novel and potent inhibitors of 5-lipoxygenase activating protein” (Bioorg Med Chem Lett, 2008)

How the values were obtained:
[1] = target: T1, Arachidonate 5-lipoxygenase-activating protein (Homo sapiens, UniProt P20292); assay: Displacement of [125I]L-691831 from FLAP
T1 sequence (P20292 whole entry): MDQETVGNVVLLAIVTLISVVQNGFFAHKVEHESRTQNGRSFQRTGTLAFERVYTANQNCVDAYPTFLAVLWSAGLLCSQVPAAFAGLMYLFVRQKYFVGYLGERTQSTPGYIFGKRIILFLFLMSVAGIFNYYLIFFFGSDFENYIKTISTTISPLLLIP

[2] = Inhibition of calcium ionophore-stimulated LTB4 production in human PMN cells; assay type: functional, cell-based
Blood = assay: Inhibition of calcium ionophore-stimulated LTB4 production in human whole blood; assay type: functional, tissue-based
[3] = target: T2, Polyunsaturated fatty acid 5-lipoxygenase (Homo sapiens, UniProt P09917); assay: Inhibition of 5LOX
T2 sequence (P09917 whole entry): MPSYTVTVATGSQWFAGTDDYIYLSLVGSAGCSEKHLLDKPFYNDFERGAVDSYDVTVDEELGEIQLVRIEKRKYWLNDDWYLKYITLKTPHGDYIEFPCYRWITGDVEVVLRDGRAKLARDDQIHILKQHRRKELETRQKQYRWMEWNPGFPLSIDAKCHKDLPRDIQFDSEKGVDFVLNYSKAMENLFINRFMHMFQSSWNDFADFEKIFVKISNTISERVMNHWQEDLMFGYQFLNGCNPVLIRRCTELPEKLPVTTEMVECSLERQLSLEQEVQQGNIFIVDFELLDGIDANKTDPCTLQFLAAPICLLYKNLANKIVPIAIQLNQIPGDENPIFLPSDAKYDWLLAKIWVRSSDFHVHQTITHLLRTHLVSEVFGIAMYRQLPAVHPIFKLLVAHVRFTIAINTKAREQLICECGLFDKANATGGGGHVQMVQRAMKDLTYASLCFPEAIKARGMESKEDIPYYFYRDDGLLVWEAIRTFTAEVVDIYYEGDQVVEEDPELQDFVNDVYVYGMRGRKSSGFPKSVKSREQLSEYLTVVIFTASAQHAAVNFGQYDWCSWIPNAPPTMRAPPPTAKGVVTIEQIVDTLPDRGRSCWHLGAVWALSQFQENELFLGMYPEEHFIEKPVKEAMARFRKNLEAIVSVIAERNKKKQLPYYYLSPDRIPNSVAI

[4] = Oral bioavailability in rat at 20 mg/kg; assay type: ADME, organism-based; conditions: in vivo
[5] = Cmax in rat at 20 mg/kg, po after 6 hrs; assay type: ADME, organism-based; parameters: dose 20 mg/kg, route oral; conditions: in vivo
Canis familiaris = assay: Inhibition of ragweed-induced urinary LTE4 production in dog at 2.5 ug/kg/min, iv; assay type: functional; conditions: Canis lupus familiaris, Urine

IC50 [1]	IC50 ([2]; Homo sapiens, PMN)	IC50 (Blood; Homo sapiens, Blood)	Compound	also measured
2.5 nM	–	–	O=C(Nc1cccnc1)Oc1ccc(OCc2nc3ccccc3s2)cc1C1(c2ccccc2)CC2CCC1C2 (centres undefined)	IC50 ([2]; pmn): 1.8 nM; IC50 (Blood): 86 nM
6 nM	80 nM	> 3000 nM	CCCCOc1ccc(OCc2ccc3ccccc3n2)cc1C1(c2ccccc2)CC2CCC1C2 (centres undefined)	–
8.6 nM	9 nM	1100 nM	COc1ccc(OCc2ccc3ccccc3n2)cc1C1(c2ccccc2)CC2CCC1C2 (centres undefined)	–
3.5 nM	8 nM	300 nM	O=C(O)CCCOc1ccc(OCc2ccc3ccccc3n2)cc1C1(c2ccccc2)CC2CCC1C2 (centres undefined)	–
2070 nM	418 nM	–	Oc1ccc(O)c(C2(c3ccccc3)CC3CCC2C3)c1 (centres undefined)	–
94 nM	5.9 nM	–	COC(=O)COc1ccc(OCc2ccc3ccccc3n2)c(C2(c3ccccc3)CC3CCC2C3)c1 (centres undefined)	–
7.6 nM	7 nM	220 nM	c1ccc(C2(c3cc(OCc4nc5ccccc5s4)ccc3OCc3ccccn3)CC3CCC2C3)cc1 (centres undefined)	–
14 nM	16 nM	> 3000 nM	O=C(O)COc1ccc(OCc2ccc3ccccc3n2)cc1C1(c2ccccc2)CC2CCC1C2 (centres undefined)	–
6.5 nM	8.7 nM	335 nM	CN(C)CCOc1ccc(OCc2ccc3ccccc3n2)cc1C1(c2ccccc2)CC2CCC1C2 (centres undefined)	–
980 nM	> 2370 nM	–	Oc1cc(OCc2ccc3ccccc3n2)ccc1C1(c2ccccc2)CC2CCC1C2 (centres undefined)	–
776 nM	47 nM	–	COC(=O)COc1cc(OCc2ccc3ccccc3n2)ccc1C1(c2ccccc2)CC2CCC1C2 (centres undefined)	–
4.1 nM	7 nM	225 nM	c1ccc(C2(c3cc(OCc4ccc5ccccc5n4)ccc3OCc3ccccn3)CC3CCC2C3)cc1 (centres undefined)	–
13.2 nM	19 nM	580 nM	Oc1ccc(OCc2ccc3ccccc3n2)cc1C1(c2ccccc2)CC2CCC1C2 (centres undefined)	IC50 [3]: 5000 nM
98 nM	44 nM	–	O=C(O)COc1ccc(C2(c3ccc(OCc4ccc5ccccc5n4)cc3)CC3CCC2C3)cc1 (centres undefined)	IC50 [3]: > 6300 nM
–	3.1 nM	510 nM	CC(C)(C)Sc1c(CC(C)(C)C(=O)O)n(Cc2ccc(Cl)cc2)c2ccc(OCc3ccc4ccccc4n3)cc12 [QUIFLAPON]	–
8.6 nM	217 nM	> 3000 nM	c1ccc(COc2ccc(OCc3ccc4ccccc4n3)cc2C2(c3ccccc3)CC3CCC2C3)cc1 (centres undefined)	–
4.5 nM	10.2 nM	1080 nM	c1ccc(C2(c3cc(OCc4ccc5ccccc5n4)ccc3OCc3ccc4ccccc4n3)CCCC2)cc1	–
3.7 nM	42 nM	150 nM	CCOC(=O)CCCOc1ccc(OCc2ccc3ccccc3n2)cc1C1(c2ccccc2)CC2CCC1C2 (centres undefined)	–
387 nM	60 nM	–	OCCOc1ccc(C2(c3ccc(OCCO)cc3)CC3CCC2C3)cc1 (centres undefined)	IC50 [3]: > 8000 nM
145 nM	186 nM	–	Oc1ccc(C2(c3ccc(OCc4ccc5ccccc5n4)cc3)CC3CCC2C3)cc1 (centres undefined)	–

IC50 [1]	IC50 ([2]; Homo sapiens, PMN)	IC50 (Blood; Homo sapiens, Blood)	Compound	also measured
12.4 nM	9.5 nM	–	O=C(O)c1ccc(OCc2ccc3ccccc3n2)cc1C1(c2ccccc2)CC2CCC1C2 (centres undefined)	–
22 nM	5 nM	1920 nM	Oc1ccc(OCc2ccc3ccccc3n2)cc1C1(c2ccccc2)CCCC1	–
3.7 nM	1.8 nM	200 nM	COC(=O)COc1ccc(OCc2ccc3ccccc3n2)cc1C1(c2ccccc2)CCCCC1	–
5.5 nM	4.2 nM	114 nM	CS(=O)(=O)CCOc1ccc(OCc2ccc3ccccc3n2)cc1C1(c2ccccc2)CC2CCC1C2 (centres undefined)	–
4.2 nM	6.1 nM	3000 nM	c1ccc(C2(c3cc(OCc4ccc5ccccc5n4)ccc3OCc3ccc4ccccc4n3)CCCCC2)cc1	–
3590 nM	152 nM	–	O=C(O)COc1cc(OCc2ccc3ccccc3n2)ccc1C1(c2ccccc2)CC2CCC1C2 (centres undefined)	–
2.4 nM	3 nM	–	O=C(Nc1cccnc1)Oc1ccc(OCc2nc3ccccc3s2)cc1C1(c2ccccc2)CC2CCC1C2 (single isomer, unassigned; (-))	IC50 (Blood): 37 nM
2.8 nM	–	–	O=C(Nc1cccnc1)Oc1ccc(OCc2nc3ccccc3s2)cc1C1(c2ccccc2)CC2CCC1C2 (racemic)	IC50 ([2]; pmn): 2 nM; IC50 (Blood): 33 nM; bioavailability [4]: 19%; Cmax [5]: 1100 nM; inhibition in vivo at 2.5 µg/kg/min (Canis familiaris): 89%
182 nM	169 nM	–	COC(=O)COc1ccc(C2(c3ccc(OCc4ccc5ccccc5n4)cc3)CC3CCC2C3)cc1 (centres undefined)	–
5.6 nM	2.6 nM	140 nM	COC(=O)c1ccc(OCc2ccc3ccccc3n2)cc1C1(c2ccccc2)CC2CCC1C2 (centres undefined)	–
127 nM	> 1800 nM	–	c1ccc2nc(COc3ccc(C4(c5ccc(OCc6ccc7ccccc7n6)cc5)CC5CCC4C5)cc3)ccc2c1 (centres undefined)	–
3150 nM	282 nM	–	O=C(O)COc1ccc(OCc2ccc3ccccc3n2)c(C2(c3ccccc3)CC3CCC2C3)c1 (centres undefined)	–
5 nM	5 nM	290 nM	COC(=O)COc1ccc(OCc2ccc3ccccc3n2)cc1C1(c2ccccc2)CC2CCC1C2 (centres undefined)	IC50 [3]: > 6000 nM
18.3 nM	3.9 nM	275 nM	c1ccc(C2(c3cc(OCc4ccccn4)ccc3OCc3ccccn3)CC3CCC2C3)cc1 (centres undefined)	–
4.9 nM	2.2 nM	80 nM	c1ccc(C2(c3cc(OCc4ccc5occc5n4)ccc3OCc3ccccn3)CC3CCC2C3)cc1 (centres undefined)	–
9.3 nM	1.7 nM	890 nM	COC(=O)COc1ccc(OCc2ccc3ccccc3n2)cc1C1(c2ccccc2)CCCC1	–
2.4 nM	< 1.3 nM	52 nM	O=C(Nc1cccnc1)Oc1ccc(OCc2ccc3ccccc3n2)cc1C1(c2ccccc2)CCCC1	–
134 nM	24 nM	–	c1ccc(C2(c3cc(OCc4cccnc4)ccc3OCc3ccccn3)CC3CCC2C3)cc1 (centres undefined)	–
181 nM	–	> 3000 nM	O=C(Nc1cccnc1)Oc1ccc(OCc2ccccn2)c(C2(c3ccccc3)CC3CCC2C3)c1 (centres undefined)	–
